Experimental data taken from paper PMC7464559, “Synthesis, Optimization, Antifungal Activity, Selectivity, and CYP51 Binding of New 2-Aryl-3-azolyl-1-indolyl-propan-2-ols” (Pharmaceuticals, 2020).
≈ marks a conversion by molar mass, not a printed value. Entries after “also recorded” stand apart in the source; their conditions may differ.

What was measured:
[1] = test system: CA98002 (Candida albicans); test: Anti-Candida in vitro assay, CA98002; assay type: cell-based; details: Candida albicans CA98002, mean of triplicate; read-out: MIC (IC80) CA98002
Procedure: (§1) Test fungal strains were obtained from the American Type Culture Collection (ATCC) or were clinical isolates from the Laboratory of Parasitology and Medical Mycology, Centre Hospitalier Universitaire (CHU) of Nantes. The strains were maintained on Sabouraud agar slants and were subcultured 24 h before used. The activity of the target compounds 8a–g and 11a–m was determined by the method previously described. Briefly, molecules were diluted in RPMI 1640 medium supplemented with 0.165 M morpholinopropanesulphonic acid (Sigma-Aldrich, Saint-Quentin Fallavier, France), 2% glucose, and antibiotics. Candida suspensions were prepared in RPMI 1640 medium (Sigma-Aldrich, Saint-Quentin Fallavier, France) adjusted to give a final concentration of 10^3 cells/mL, and a 96-well microplate (Nunc, D. Dutscher, Brumath, France) was seeded with 100 µL. Each concentration of molecules (100 µL) to be tested was added (in triplicate) and plates were incubated at 37 °C for 24 h. The cellular viability was evaluated on the Fluorolite 1000 (Dynatech, France) with an excitation at 550 nm and an emission at 590 nm after a 4 h incubation with 10 µL of Alamar Blue®. […] MIC was expressed as the mean of the triplicate values. KTC and FLC were used as standards.

[2] = test system: CA98005 (Candida albicans); test: Anti-Candida in vitro assay, CA98005; assay type: cell-based; details: Candida albicans CA98005, mean of triplicate; read-out: MIC (IC80) CA98005
Procedure: as §1

[3] = test system: ATCC6258 Candida krusei strain; test: Anti-Candida in vitro assay, ATCC6258; assay type: cell-based; details: Pichia kudriavzevii; Candida krusei ATCC6258, mean of triplicate; read-out: MIC (IC80) ATCC6258
Procedure: as §1

CK98002 (Candida krusei) = test: Anti-Candida in vitro assay, CK98002; assay type: cell-based; details: Pichia kudriavzevii; Candida krusei CK98002, mean of triplicate; read-out: MIC (IC80) CK98002
Procedure: as §1

CK98003 (Candida krusei) = test: Anti-Candida in vitro assay, CK98003; assay type: cell-based; details: Pichia kudriavzevii; Candida krusei CK98003, mean of triplicate; read-out: MIC (IC80) CK98003
Procedure: as §1

[4] = test system: CL98001 (Candida lusitaniae); test: Anti-Candida in vitro assay, CL98001; assay type: cell-based; details: Clavispora lusitaniae; Candida lusitaniae CL98001, mean of triplicate; read-out: MIC (IC80) CL98001
Procedure: as §1

[5] = test system: ATCC90018 Candida parapsilosis strain; test: Anti-Candida in vitro assay, ATCC90018; assay type: cell-based; details: Lodderomyces parapsilosis; Candida parapsilosis ATCC90018, mean of triplicate; read-out: MIC (IC80) ATCC90018
Procedure: as §1

[6] = biological target: T1, 17α-hydroxylase/17,20-lyase (CYP17) (Homo sapiens, UniProt P05093); test: In vitro inhibition of 17α-hydroxylase/17,20-lyase; assay type: biochemical; details: at 2.5 µM
T1 sequence (P05093 1-508): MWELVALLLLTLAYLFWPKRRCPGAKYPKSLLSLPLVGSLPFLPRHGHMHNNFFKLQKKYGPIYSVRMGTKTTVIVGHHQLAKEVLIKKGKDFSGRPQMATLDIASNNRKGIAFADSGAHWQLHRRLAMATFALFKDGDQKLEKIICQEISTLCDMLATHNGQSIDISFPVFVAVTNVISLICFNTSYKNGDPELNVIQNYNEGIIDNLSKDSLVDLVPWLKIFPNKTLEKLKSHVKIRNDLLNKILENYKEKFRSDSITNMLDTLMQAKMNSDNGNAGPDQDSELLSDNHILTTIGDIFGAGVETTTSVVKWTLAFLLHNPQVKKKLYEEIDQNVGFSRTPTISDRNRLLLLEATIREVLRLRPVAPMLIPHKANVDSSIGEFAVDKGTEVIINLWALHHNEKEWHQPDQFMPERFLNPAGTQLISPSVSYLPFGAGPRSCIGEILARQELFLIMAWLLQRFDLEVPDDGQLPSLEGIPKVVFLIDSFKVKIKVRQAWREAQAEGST
Procedure: The assay was performed similar to described methods [29, 52]. […] Microsomal protein was added to start the reaction. […] After the addition of 1 mL EtOAc, the vials were shaken then centrifuged. The organic phase was removed, vortexed with phosphate buffer (250 µL), 1 M aqueous HCl (50 µL), and then dried. Aliquots of 25 µL methanol, containing 250 pmol of fluorocortisol acetate as internal standard, were added to the extracts. The samples (20 µL) were submitted to HPLC (RP-8 column, methanol/water 1:1, v/v) and measured using UV (240 nm).

[7] = biological target: T2, aldosterone synthase (CYP11B2) (Homo sapiens, UniProt P19099); test: In vitro inhibition of CYP11B2 (Schizosaccharomyces pombe MB164); assay type: cell-based; details: inhibitor 100 nM to 5 µM, three to four independent experiments
T2 construct: expressed in transfected cells; host or cells: Schizosaccharomyces pombe strain MB164
T2 sequence (P19099 25-503): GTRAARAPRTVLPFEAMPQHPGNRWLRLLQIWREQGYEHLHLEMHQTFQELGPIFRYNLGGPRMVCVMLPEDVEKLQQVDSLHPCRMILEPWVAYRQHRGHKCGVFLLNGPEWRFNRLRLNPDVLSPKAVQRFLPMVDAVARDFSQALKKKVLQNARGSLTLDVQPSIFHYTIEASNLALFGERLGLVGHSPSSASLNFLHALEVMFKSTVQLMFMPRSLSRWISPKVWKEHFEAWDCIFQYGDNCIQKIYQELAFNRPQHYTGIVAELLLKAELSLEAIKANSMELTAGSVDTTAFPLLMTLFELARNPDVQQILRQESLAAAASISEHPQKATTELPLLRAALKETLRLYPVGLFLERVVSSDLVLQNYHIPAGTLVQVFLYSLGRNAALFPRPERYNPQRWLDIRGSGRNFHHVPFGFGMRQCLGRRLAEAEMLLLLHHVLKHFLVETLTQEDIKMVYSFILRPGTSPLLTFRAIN
Procedure: For the CYP11B1 assay, 11-deoxycortisol (RSS) was used as substrate, whereas 11-deoxycorticosterone (DOC) was used for the CYP11B2 assay. These non-radioactive steroids were purchased from Sima (Deisenhofen, Germany). Radioactive steroids were obtained from Amersham Pharmacia Biotech (Freiburg, Germany). Two Schizosaccharomyces pombe strains were used, SZ1 expressing CYP11B1 and MB164 expressing CYP11B2. The assays were performed as described previously by Bureik et al.. Exponentially growing fission yeast cells were cultivated by shaking and with good aeration at 30 °C in 500 µL Edinburgh Minimal Medium Glutamate (EMMG) containing supplements as required. Inhibitors were dissolved in ethanol at different concentrations, and equal volumes of ethanolic solutions were used in all cases (including controls). Final concentrations of inhibitors ranged from 100 nM to 5 µM. Cells were preincubated with the respective inhibitor solutions for 15 min prior to the addition of steroid substrates (100 nM DOC or 100 nM RSS, respectively). For detection of steroids, 1% of the total substrate amount was radioactively labeled as [^3H]RSS, [^3H]DOC, or [^14C]DOC. After 4 h (MB164) or 24 h (SZ1) cultures were extracted with chloroform and dried under vacuum. The residues were dissolved in 10 µL chloroform and spotted onto glass-backed silica-coated HPTLC plates (Kieselgel 60 F254, Merck; Darmstadt, Germany). In addition, small amounts of non-radioactive steroids were spotted as references. The HPTLC was developed twice in chloroform/methanol/water (300:20:1, v/v/v) and steroids identified after exposure to Fuji imaging plates and quantitated on a phosphoimager (BAS-2500, Fuji; Stamford, CT, USA).

Row | MIC [1] [µg/mL] | MIC [2] [µg/mL] | MIC [3] [µg/mL] | MIC (CK98002 (Candida krusei)) [µg/mL] | MIC (CK98003 (Candida krusei)) [µg/mL] | MIC [4] [µg/mL] | MIC [5] [µg/mL] | inhibition at […] [6] [%] | SMILES | CYP11B2 inhibition effect [7]
1 | 2.75 (≈ 7.1 µM) | 2.71 (≈ 6.99 µM) | 24.4 (≈ 63 µM) | 22.1 (≈ 57 µM) | 19.4 (≈ 50 µM) | 9.68 (≈ 25 µM) | > 38.7 | < 5 | O[C@@](Cn1cncn1)(Cn1ccc2ccccc21)c1ccc(Cl)cc1Cl [(+)-(R)-8g] | slight inhibitory effect; also recorded: slight inhibition
2 | < 0.004 | < 0.004 | 0.08 (≈ 0.207 µM) | 2.79 (≈ 7.2 µM) | 3.56 (≈ 9.2 µM) | < 0.004 | 0.15 (≈ 0.387 µM) | < 10 | OC(Cn1cncn1)(Cn1ccc2ccccc21)c1ccc(Cl)cc1Cl (stereo not drawn) [Compound 8g, 2-(2,4-Dichlorophenyl)-3-(1H-indol-1-yl)-1-(1H-1,2,4-triazol-1-yl)-propan-2-ol] | slight inhibitory effect; also recorded: slight inhibition
3 | < 0.039 | 0.026 (≈ 0.0671 µM) | 0.167 (≈ 0.431 µM) | 0.022 (≈ 0.0568 µM) | 0.039 (≈ 0.101 µM) | 0.024 (≈ 0.062 µM) | 0.027 (≈ 0.0697 µM) | < 5 | O[C@](Cn1cncn1)(Cn1ccc2ccccc21)c1ccc(Cl)cc1Cl [(−)-(S)-8g] | no inhibition
